From patent US9765108B2 (SHILPA MEDICARE LIMITED, priority 2012, dated 2017)
Read-outs that look alike come from different tables or passages of the source.

Key:
[1] = cited from earlier work
[2] = Water content of lyophilized formulation / crystalline form; assay type: physicochemical; conditions: neat crystalline form as obtained after lyophilization, no bulking agent
Method: The secondary drying phase is the final segment of the lyophilization cycle, where residual moisture is removed from a formulation's interstitial matrix by desorption with elevated temperatures and/or reduced pressures. The final moisture content of a lyophilized formulation, which can be measured by Karl Fischer or other methods, is important because if the solid cake contains too much residual moisture, the stability of the active can be compromised.
Chemical stability is tested for both example 1 & it's corresponding placebo formulation by storing the lyophilized vials under various conditions: 25° C. and 60% relative humidity (“A”); 40° C. and 75% relative humidity (“B”); and 60° (“C”); for one month. Impurity analyses are done before storage (“Initial”) and after storage, and are expressed as percentages of the label 5-azacytidine content.

| Water content [2] [% w/w] | Structure (SMILES) | Solubility ([1]; 5% Tween 80 in water) | Solubility ([1]; 5% dextrose in water) | Solubility ([1]; N-methylpyrrolidone) | Solubility ([1]; acetone) | Solubility ([1]; dimethylsulfoxide (DMSO)) | Solubility ([1]; ethanol and water (50:50)) | Solubility ([1]; ethanol) | Solubility ([1]; methyl ethyl ketone) | Solubility ([1]; normal saline) | Solubility ([1]; polyethylene glycol) | Solubility ([1]; propylene glycol) | Solubility ([1]; water saturated octanol) | Solubility ([1]; water) |
| --- | --- | --- | --- | --- | --- | --- | --- | --- | --- | --- | --- | --- | --- | --- |
|  | Nc1ncn([C@@H]2O[C@H](CO)[C@@H](O)[C@H]2O)c(=O)n1 [5-azacytidine, 4-amino-1-β-D-ribofuranosyl-1,3,5-triazin-2(1H)-one] | sparingly soluble | sparingly soluble | sparingly soluble | insoluble | soluble | slightly soluble | insoluble | insoluble | sparingly soluble | slightly soluble | slightly soluble | sparingly soluble | sparingly soluble |
| 0.6 | Nc1ncn([C@@H]2O[C@H](CO)[C@@H](O)[C@H]2O)c(=O)n1 [Crystalline 5-Azacytidine Form-SA-1, 5-Azacytidine] |  |  |  |  |  |  |  |  |  |  |  |  |  |
| 0.7 | Nc1ncn([C@@H]2O[C@H](CO)[C@@H](O)[C@H]2O)c(=O)n1 [Crystalline 5-Azacytidine Form-SA-2, 5-Azacytidine] |  |  |  |  |  |  |  |  |  |  |  |  |  |
